The source of these data is ChEMBL document CHEMBL1126630, “Adenosine-5'-carboxaldehyde: a potent inhibitor of S-adenosyl-L-homocysteine hydrolase” (J Med Chem, 1993).

The target of assay [1] is T1, Adenosylhomocysteinase (Rattus norvegicus) (UniProt P10760).
T1 sequence (whole entry): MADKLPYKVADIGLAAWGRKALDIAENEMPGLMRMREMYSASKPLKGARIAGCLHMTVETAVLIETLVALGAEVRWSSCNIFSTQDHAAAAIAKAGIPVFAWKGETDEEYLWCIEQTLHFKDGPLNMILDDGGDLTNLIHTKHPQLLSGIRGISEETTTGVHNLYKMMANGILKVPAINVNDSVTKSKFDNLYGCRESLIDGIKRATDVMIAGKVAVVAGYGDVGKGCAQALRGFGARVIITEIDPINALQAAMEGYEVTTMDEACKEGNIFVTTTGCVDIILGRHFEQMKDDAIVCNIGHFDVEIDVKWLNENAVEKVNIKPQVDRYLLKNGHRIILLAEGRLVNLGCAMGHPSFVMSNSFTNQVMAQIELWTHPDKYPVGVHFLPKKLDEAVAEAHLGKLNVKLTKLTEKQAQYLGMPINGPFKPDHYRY
Description: Rate constant for recombinant rat liver S-adenosyl-homocysteine hydrolase inactivation

In a further assay the target is T2, Adenosylhomocysteinase (Rattus norvegicus, UniProt P10760).
T2 sequence (P10760 whole entry): T1 sequence (whole entry)
As to the kind of experiment: Inhibitory activity against recombinant rat liver S-adenosyl-homocysteine hydrolase.

For the molecule `Nc1ncnc2c1ncn2[C@@H]1O/C(=C/F)[C@H](O)[C@@H]1O`, the k2 in assay [1] worked out at 0.05 min⁻¹. In addition, the Ki (in general, the equilibrium dissociation constant of an inhibitor or competing ligand from its target) on Adenosylhomocysteinase is 40 nM.
`Nc1ncnc2c1ncn2[C@@H]1O[C@@H](C=O)[C@@H](O)[C@H]1O` registered a k2 in assay [1] of 0.65 min⁻¹. The Ki at Adenosylhomocysteinase is 39 nM.
In turn, `Nc1ncnc2c1ncn2[C@@H]1O/C(=C\F)[C@H](O)[C@@H]1O` displayed a k2 in assay [1] of 0.082 min⁻¹. Further, the Ki at Adenosylhomocysteinase was determined as 39 nM.
The like results for `Nc1ncnc2c1ncn2[C@@H]1O[C@H](C=O)[C@@H](O)[C@H]1O` were, in that order, 0.22 min⁻¹ and 43 nM.
